Laboratory results reported in ChEMBL document CHEMBL1799924, “Synthesis and activities of naphthalimide azoles as a new type of antibacterial and antifungal agents” (2011).
Converted amounts (≈) assume the structure as drawn.

Experiments:
Escherichia coli = assay: Antibacterial activity against Escherichia coli JM 109 by microbroth dilution method; assay type: functional
Salmonella typhi = assay: Antibacterial activity against Bacillus typhi by microbroth dilution method; assay type: functional, Salmonella enterica subsp. enterica serovar Typhi; details: Salmonella enterica
Micrococcus luteus = assay: Antibacterial activity against Micrococcus luteus by microbroth dilution method; assay type: functional
Staphylococcus aureus [1] = assay: Antibacterial activity against methicillin-resistant Staphylococcus aureus N 315 by microbroth dilution method; assay type: functional
Candida albicans = assay: Antifungal activity against Candida albicans ATCC 76615 by microbroth dilution method; assay type: functional
Pseudomonas aeruginosa = assay: Antibacterial activity against Pseudomonas aeruginosa by microbroth dilution method; assay type: functional
Staphylococcus aureus [2] = assay: Antibacterial activity against Staphylococcus aureus ATCC 25923 by microbroth dilution method; assay type: functional
Candida = assay: Antifungal activity against Candida mycoderma by microbroth dilution method; assay type: functional
Bacillus subtilis = assay: Antibacterial activity against Bacillus subtilis ATCC 6633 by microbroth dilution method; assay type: functional
Bacillus = assay: Antibacterial activity against Bacillus proteus by microbroth dilution method; assay type: functional

| Compound | MIC (Escherichia coli) [µg/mL] | MIC (Salmonella typhi) [µg/mL] | MIC (Micrococcus luteus) [µg/mL] | MIC (Staphylococcus aureus [1]) [µg/mL] | MIC (Candida albicans) [µg/mL] | MIC (Pseudomonas aeruginosa) [µg/mL] | MIC (Staphylococcus aureus [2]) [µg/mL] | MIC (Candida) [µg/mL] | MIC (Bacillus subtilis) [µg/mL] | MIC (Bacillus) [µg/mL] |
| --- | --- | --- | --- | --- | --- | --- | --- | --- | --- | --- |
| O=C1c2cccc3c(Br)ccc(c23)C(=O)N1CCCCCn1cc[n+](Cc2ccc(F)cc2F)c1.[Br-] | 16 | 16 | 4 | 8 | 16 | 16 | 16 | 16 | 16 | 4 |
| O=C1c2cccc3c(Br)ccc(c23)C(=O)N1CCCCn1ccnc1 | 8 (≈ 20.1 µM) | 16 (≈ 40.2 µM) | 16 (≈ 40.2 µM) | 16 (≈ 40.2 µM) | 64 (≈ 161 µM) | 16 (≈ 40.2 µM) | 16 (≈ 40.2 µM) | 32 (≈ 80.3 µM) | 32 (≈ 80.3 µM) | 16 (≈ 40.2 µM) |
| O=C1c2cccc3c(Br)ccc(c23)C(=O)N1CCCn1c[n+](Cc2ccc(Cl)cc2)cn1.[Br-] | 8 | 16 | 8 | 8 | 16 | 8 | 32 | 16 | 16 | 16 |
| O=C1c2cccc3c(Br)ccc(c23)C(=O)N1CCCCCCn1cc[n+](Cc2ccc(F)cc2F)c1.[Br-] | 32 | 32 | 32 | 16 | 32 | 64 | 16 | 32 | 16 | 32 |
| O=C1c2cccc3c(Br)ccc(c23)C(=O)N1CCCCn1cc[n+](Cc2ccc(F)cc2F)c1.[Br-] | 8 | 8 | 8 | 2 | 32 | 16 | 8 | 16 | 8 | 16 |
| O=C1c2cccc3c(Br)ccc(c23)C(=O)N1CCCCn1c[n+](Cc2ccc(F)cc2F)cn1.[Br-] | 8 | 8 | 16 | 16 | 16 | 2 | 16 | 32 | 16 | 16 |
| O=C1c2cccc3c(Br)ccc(c23)C(=O)N1CCCCCCn1cncn1 | > 512 | > 512 | > 512 | > 512 | > 512 | > 512 | > 512 | > 512 | > 512 | > 512 |
| O=C1c2cccc3c(Br)ccc(c23)C(=O)N1CCCCCn1cncn1 | > 512 | > 512 | > 512 | > 512 | > 512 | 256 (≈ 619 µM) | > 512 | > 512 | > 512 | > 512 |
| O=C1c2cccc3c(Br)ccc(c23)C(=O)N1CCCCCCn1c[n+](Cc2ccc(F)cc2F)cn1.[Br-] | 32 | 16 | 32 | 32 | 32 | 8 | 16 | 64 | 16 | 32 |
| O=C1c2cccc3c(Br)ccc(c23)C(=O)N1CCCn1cncn1 | > 512 | > 512 | > 512 | > 512 | 256 (≈ 665 µM) | 256 (≈ 665 µM) | > 512 | 256 (≈ 665 µM) | 256 (≈ 665 µM) | 256 (≈ 665 µM) |
| C[C@@H]1CN(c2c(F)c(F)c3c(=O)c(C(=O)O)cn(C4CC4)c3c2F)C[C@H](C)N1 [ORBIFLOXACIN] | 1 (≈ 2.53 µM) | 1 (≈ 2.53 µM) | 1 (≈ 2.53 µM) | 1 (≈ 2.53 µM) | – | 1 (≈ 2.53 µM) | 2 (≈ 5.06 µM) | – | 2 (≈ 5.06 µM) | 4 (≈ 10.1 µM) |
| O=C(N[C@H](CO)[C@H](O)c1ccc([N+](=O)[O-])cc1)C(Cl)Cl [CHLORAMPHENICOL] | 8 (≈ 24.8 µM) | 8 (≈ 24.8 µM) | 8 (≈ 24.8 µM) | 4 (≈ 12.4 µM) | – | 16 (≈ 49.5 µM) | 2 (≈ 6.19 µM) | – | 4 (≈ 12.4 µM) | 2 (≈ 6.19 µM) |
| O=C1c2cccc3c(Br)ccc(c23)C(=O)N1CCCn1c[n+](Cc2ccc(Cl)cc2Cl)cn1.[Br-] | 4 | 16 | 8 | 16 | 8 | 4 | 16 | 8 | 8 | 4 |
| O=C1c2cccc3c(Br)ccc(c23)C(=O)N1CCCn1c[n+](Cc2ccccc2Cl)cn1.[Br-] | 16 | 32 | 16 | 16 | 8 | 16 | 16 | 32 | 32 | 32 |
| O=C1c2cccc3c(Br)ccc(c23)C(=O)N1CCCn1cc[n+](Cc2ccc(F)cc2F)c1.[Br-] | 8 | 8 | 8 | 4 | 32 | 8 | 4 | 32 | 8 | 8 |
| O=C1c2cccc3c(Br)ccc(c23)C(=O)N1CCCCn1cncn1 | > 512 | > 512 | > 512 | > 512 | > 512 | 256 (≈ 641 µM) | > 512 | > 512 | > 512 | 256 (≈ 641 µM) |
| O=C1c2cccc3c(Br)ccc(c23)C(=O)N1CCCn1c[n+](Cc2ccc(Cl)c(Cl)c2)cn1.[Br-] | 16 | 16 | 16 | 16 | 16 | 16 | 16 | 16 | 32 | 32 |
| OC(Cn1cncn1)(Cn1cncn1)c1ccc(F)cc1F [FLUCONAZOLE] | – | – | – | – | 1 (≈ 3.27 µM) | – | – | 4 (≈ 13.1 µM) | – | – |
| O=C1c2cccc3c(Br)ccc(c23)C(=O)N1CCCCCn1c[n+](Cc2ccc(F)cc2F)cn1.[Br-] | 8 | 16 | 16 | 16 | 16 | 2 | 32 | 16 | 32 | 32 |
| O=C1c2cccc3c(Br)ccc(c23)C(=O)N1CCCn1c[n+](Cc2ccc([N+](=O)[O-])cc2)cn1.[Br-] | 16 | 32 | 32 | 16 | 32 | 32 | 32 | 16 | 32 | 16 |
| O=C1c2cccc3c(Br)ccc(c23)C(=O)N1CCCCCn1ccnc1 | 32 (≈ 77.6 µM) | 128 (≈ 310 µM) | 64 (≈ 155 µM) | 128 (≈ 310 µM) | 128 (≈ 310 µM) | 64 (≈ 155 µM) | 64 (≈ 155 µM) | 64 (≈ 155 µM) | 64 (≈ 155 µM) | 32 (≈ 77.6 µM) |
| O=C1c2cccc3c(Br)ccc(c23)C(=O)N1CCCn1c[n+](Cc2ccc(F)cc2F)cn1.[Br-] | 4 | 4 | 8 | 4 | 8 | 1 | 16 | 4 | 4 | 8 |
| O=C1c2cccc3c(Br)ccc(c23)C(=O)N1CCCn1ccnc1 | 16 (≈ 41.6 µM) | 16 (≈ 41.6 µM) | 16 (≈ 41.6 µM) | 16 (≈ 41.6 µM) | 64 (≈ 167 µM) | 32 (≈ 83.3 µM) | 16 (≈ 41.6 µM) | 64 (≈ 167 µM) | 16 (≈ 41.6 µM) | 16 (≈ 41.6 µM) |
| O=C1c2cccc3c(Br)ccc(c23)C(=O)N1CCCCCCn1ccnc1 | 64 (≈ 150 µM) | 32 (≈ 75.1 µM) | 128 (≈ 300 µM) | 64 (≈ 150 µM) | 32 (≈ 75.1 µM) | 128 (≈ 300 µM) | 64 (≈ 150 µM) | 32 (≈ 75.1 µM) | 16 (≈ 37.5 µM) | 16 (≈ 37.5 µM) |
